Data reported in PMC7757078, “Comparative in vitro analysis of inhibition of rhinovirus and influenza virus replication by mucoactive secretolytic agents and plant extracts” (BMC Complementary Medicine and Therapies, 2020).
Counter-ions that a name gives are not always drawn. Like-named read-outs stand apart in the source and are kept apart here. Marks after values point to notes of the source that are not given here.

Assays:
HeLa Ohio cells = test: Cytotoxicity determination in HeLa Ohio cells (crystal violet, 72 h); type: cell-based, human; details: for 50% Cytotoxic concentration in HeLa cells, Mean: 72 h
Experimental: HeLa Ohio and MDCK cells were seeded at 1.6 × 10^4 and 2.3 × 10^4 cells/well in 100 μL growth medium in 96 well flat-bottomed microtiter plates, respectively. The cytotoxicity of the test compounds and extracts was determined on two-day-old confluent cell monolayers grown in the internal 60 wells of a microtiter plate (5% carbon dioxide, 37 °C). After removal of the growth medium, 50 μL of test medium and eight half-log dilutions of the reference compounds pleconaril or zanamivir, or eight half-log dilutions of test items in test medium (each concentration in duplicates) were added. The concentration range of reference compounds applied to cytotoxicity assays was 0.0316–100 μM. […] Six cell control wells were incubated with 100 μL test medium. After 72 h of incubation at 37 °C in 5% carbon dioxide atmosphere, the Dynex Immuno Assay System (Guernsey, UK), developed for automated ELISA techniques, was applied to gently wash, stain, measure, and analyze the viability of the cell monolayers based on optical density determination. After aspiration of supernatant, cell monolayers were washed three times with 300 μL physiological phosphate-buffered saline to remove death cells. The remaining cells were fixed and stained with 50 μL of 0.07% crystal violet (w/v), 20% ethanol, 3% formalin solution in water for 10 min. Six washings with 300 μL of water followed to remove excess stain. Before measuring the optical density, we solubilized the crystal violet by adding 100 μL lysis buffer (0.898 g of sodium citrate and 1.25 mL of 1 N HCl in 98.05 mL 47.5% ethanol) for 20 min. The absorbances were red at two wavelengths (550 and 690 nm). Cell viability in a well was defined as the percentage of the mean value of optical density resulting from the six cell controls, which was set 100% cell viability. The inhibitor concentration that reduces the mean value of optical density determined for cell controls by half is called 50% cytotoxic concentration (CC50). A minimum of three independent experiments were performed.

[1] = tested on: influenza virus A/Jena/8178/09; details: for CPE inhibition at non-cytotoxic concentrations: 0.0316–100 μM; for CPE inhibition at non-cytotoxic concentrations / Effect on influenza virus A/Jena/8178/09-induced CPE (in words): MDCK cells; for Effect on influenza virus A/Jena/8178/09-induced CPE (in words): non-cytotoxic concentrations
[2] = tested on: influenza virus A/Hong Kong/68; details: for CPE inhibition at non-cytotoxic concentrations: 0.0316–100 μM; for Effect on influenza virus A/Hong Kong/68-induced CPE (in words): non-cytotoxic concentrations
rhinovirus A2 = test: CPE inhibitory assay with rhinovirus A2 in HeLa Ohio cells; details: for CPE inhibition at non-cytotoxic concentrations: 0.0316–100 μM, HeLa Ohio cells
rhinovirus B14 [3] = test: CPE inhibitory assay with rhinovirus B14 in HeLa Ohio cells; type: cell-based; details: for CPE inhibition at non-cytotoxic concentrations: 0.0316–100 μM
rhinovirus B14 [4] = details: 3-day pretreatment of primary human tracheal epithelial cells; cited from earlier work
[5] = following the application of 600 mg; cited from earlier work
[6] = tested on: influenza virus A/Hong Kong/68; test: Time-of-addition plaque-reduction assay in MDCK cells; details: pelargonium extract 50 μg/mL, zanamivir 1 μM
[7] = tested on: influenza virus A/Jena/8178/09; test: organism not typed; details: MDCK, read-out: 50% Inhibitory concentration against Influenza A viruses Jena/8178, Mean
viral neuraminidase = details: 37 °C for 24 h
Experimental: Thereafter, we incubated the assays at 37 °C for further 24 h allowing viral neuraminidase activation [43]. The activated viral neuraminidase abrogates the virus-mediated hemagglutination in absence of inhibitors (hemagglutination control) or in the presence of ineffective inhibitor concentrations. Neuraminidase inhibitors prevent this abrogation of virus-mediated hemagglutination.

[8] = tested on: influenza virus A/Hong Kong/68; test: organism not typed; details: MDCK, read-out: 50% Inhibitory concentration against Influenza A viruses HK/68, Mean
[9] = tested on: influenza virus A/Jena/8178/09; test: Hemagglutination inhibition assay with human erythrocytes; parameters: species or system influenza A virus (H1N1pdm09); details: 4 hemagglutination units, maximum test concentration 1 μM
Experimental: (§1) The negative control (no hemagglutination) consists only 50 μL phosphate-buffered saline (n = 8). […] We added 50 μL of a 1% human erythrocytes solution to each well of the microplate. After a two-hour incubation at 4 °C, we recorded the lowest compound concentration that induces hemagglutination or inhibits virus-mediated hemagglutination (minimum hemagglutination or hemagglutination inhibitory concentration, respectively).

human erythrocytes = test: Hemagglutination by test item in the absence of virus; details: maximum test concentration 1 μM
Experimental: as §1

[10] = tested on: rhinovirus (stored under rhinovirus A2; the sentence does not specify which rhinovirus); test: in vitro; details: human

SMILES: Nc1c(Br)cc(Br)cc1CN[C@H]1CC[C@H](O)CC1 [Ambroxol, ambroxol]
- 50% Cytotoxic concentration in MDCK cells, Mean (MDCK cells; MDCK cells, 72 h): > 100^a μM
- 50% Cytotoxic concentration in HeLa cells, Mean (HeLa Ohio cells; HeLa Ohio cells): 61.24 µM
- 50% Cytotoxic concentration in HeLa cells, Mean (HeLa Ohio cells; HeLa Ohio cells, listed as ambroxol): 51.85 µM
- CPE inhibition at non-cytotoxic concentrations [1]: less than 50%
- Effect on influenza virus A/Jena/8178/09-induced CPE (in words) [1]: did not show any effect
- CPE inhibition at non-cytotoxic concentrations ([2]; MDCK cells): less than 50%
- Effect on influenza virus A/Hong Kong/68-induced CPE (in words) ([2]; MDCK cells): did not show any effect
- CPE inhibition at non-cytotoxic concentrations (rhinovirus A2): < 50%
- CPE inhibition at non-cytotoxic concentrations (rhinovirus B14 [3]): < 50%
- Concentration reducing the titer of rhinovirus B14 in the supernatant (rhinovirus B14 [4]): at least 0.1 μM

SMILES: CN(Cc1cc(Br)cc(Br)c1N)C1CCCCC1 [Bromhexine, bromhexine hydrochloride]
- Cytotoxic concentration in MDCK cells (MDCK cells; MDCK cells): 100 µM
- 50% Cytotoxic concentration in MDCK cells, Mean (MDCK cells; MDCK cells, 72 h): 51.29 µM
- 50% Cytotoxic concentration in HeLa cells, Mean (HeLa Ohio cells; HeLa Ohio cells): 51.85 µM
- 50% Cytotoxic concentration in HeLa cells, Mean (HeLa Ohio cells; HeLa Ohio cells, listed as bromhexine): 61.24 µM
- CPE inhibition at non-cytotoxic concentrations [1]: less than 50%
- CPE inhibition at non-cytotoxic concentrations ([2]; MDCK cells): less than 50%
- Reduction of influenza virus A/Hong Kong/68-induced CPE ([2]; at 31.6 μM, MDCK cells): 30%
- CPE inhibition at non-cytotoxic concentrations (rhinovirus A2): < 50%
- CPE inhibition at non-cytotoxic concentrations (rhinovirus B14 [3]): < 50%

SMILES: CC(=O)N[C@@H](CS)C(=O)O [N-acetylcysteine]
- 50% Cytotoxic concentration in MDCK cells, Mean (MDCK cells): > 100^a μM
- 50% Cytotoxic concentration in HeLa cells, Mean (HeLa Ohio cells; HeLa Ohio cells): > 100^a μM
- Cytotoxicity in HeLa Ohio cells (in words) (HeLa Ohio cells; tested concentration range): non-cytotoxic
- Maximal plasma concentration [5]: about 16 μM
- CPE inhibition at non-cytotoxic concentrations [1]: less than 50%
- Effect on influenza virus A/Jena/8178/09-induced CPE (in words) [1]: did not show any effect
- CPE inhibition at non-cytotoxic concentrations ([2]; MDCK cells): less than 50%
- Effect on influenza virus A/Hong Kong/68-induced CPE (in words) ([2]; MDCK cells): did not show any effect

SMILES: CC(=O)N[C@H]1[C@H]([C@H](O)[C@H](O)CO)OC(C(=O)O)=C[C@@H]1N=C(N)N [Zanamivir, zanamivir]
- 50% Cytotoxic concentration in MDCK cells, Mean (MDCK cells; MDCK cells, 72 h): > 100^a μM
- Cytotoxicity in MDCK cells (in words) (MDCK cells; tested concentrations): well tolerated
- Plaque production, treatment during adsorption ([6]; 4 °C for 2 h): did not prevent
- Plaque production, pre-treatment of cells ([6]; 1 h at 37 °C before infection): did not prevent
- Plaque production, pre-treatment of virus ([6]; 1 h at 37 °C before infection): did not prevent
- Plaque production, treatment after adsorption ([6]; in agar overlay for 72 h): completely blocked
- Plaque production, treatment during and after adsorption [6]: completely blocked
- IC50 [7]: 7 nM
- Minimal neuraminidase inhibitory concentration (viral neuraminidase): 0.03 µM
- Selectivity index against Influenza A viruses Jena/8178 [1]: > 14,285
- Selectivity index against Influenza A viruses HK/68 [2]: > 12,500
- IC50 [8]: 8 nM
- Inhibition of virus-mediated hemagglutination (in words) [9]: neither mediated nor inhibited
- Induction of hemagglutination (in words) (human erythrocytes): neither mediated nor inhibited

SMILES: Cc1cc(CCCOc2c(C)cc(-c3noc(C(F)(F)F)n3)cc2C)on1 [Pleconaril, pleconaril]
- Concentration above which a marked dose-dependent cytotoxic effect was seen (HeLa Ohio cells; HeLa Ohio cells): higher than 10 μM
- 50% Cytotoxic concentration in HeLa cells, Mean (HeLa Ohio cells; HeLa Ohio cells): 28.75 µM
- selectivity ratio [10]: > 3500
- IC50 (rhinovirus A2; HeLa, read-out: 50% Inhibitory concentration against Rhinoviruses A2, Mean): 8 nM
- IC50 (rhinovirus B14 [3]; n.a. = not active up to the maximum non-cytotoxic concentration, read-out: 50% Inhibitory concentration against Rhinoviruses B14, Mean): 25 nM
